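Five compound concentrations were applied to cells in 96-well plates for 48 hours; endpoints were derived by simple linear interpolation of the resulting dose-response curve. GI50 marks 50% less growth. At the TGI there is no net growth.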
Columns and labels:
Assay in all cases: growth of human tumour cells (NCI), 48 h
UACC-62 melanoma = tested on: UACC-62 melanoma
CCRF-CEM leukemia = tested on: CCRF-CEM leukemia
OVCAR-4 ovarian = tested on: OVCAR-4 ovarian
SF-268 CNS = tested on: SF-268 CNS
SNB-19 CNS = tested on: SNB-19 CNS
HOP-62 NSCLC = tested on: HOP-62 NSCLC
HOP-92 NSCLC = tested on: HOP-92 NSCLC
T-47D breast = tested on: T-47D breast
BT-549 breast = tested on: BT-549 breast
MDA-MB-231 breast = tested on: MDA-MB-231 breast

`C#CC1(O)CCC2[C@@H]3CCc4cc(Oc5nc(F)nc(-c6c7ccccc7cn6C)n5)ccc4C3CC[C@@]21C` (some centres not stated) was tested, and the TGI (UACC-62 melanoma) was > 100 µM, the TGI (CCRF-CEM leukemia) was > 67 µM and the TGI (OVCAR-4 ovarian) was > 100 µM. For the same compound, the TGI (SF-268 CNS) was > 100 µM, the TGI (SNB-19 CNS) was > 100 µM and the TGI (HOP-62 NSCLC) was > 100 µM. For the same compound, the TGI (HOP-92 NSCLC) was > 100 µM.

In the case of `COc1ccc(Cn2cc3c(c2-c2ccccc2)CCc2cnoc2-3)cc1N`, the GI50 (UACC-62 melanoma) is reported as 0.182 µM, the TGI (UACC-62 melanoma) is reported as > 100 µM and the GI50 (CCRF-CEM leukemia) is reported as 0.245 µM. The GI50 (OVCAR-4 ovarian) was 0.898 µM, the TGI (OVCAR-4 ovarian) was > 100 µM and the GI50 (SF-268 CNS) was 0.812 µM. The TGI (SF-268 CNS) was > 100 µM, the GI50 (SNB-19 CNS) was 0.531 µM and the TGI (SNB-19 CNS) was > 100 µM. For the same compound, the GI50 (HOP-62 NSCLC) was 0.433 µM, the TGI (HOP-62 NSCLC) was > 100 µM and the GI50 (T-47D breast) was 3.86 µM. The TGI (T-47D breast) was > 100 µM, the GI50 (BT-549 breast) was 3.01 µM and the TGI (BT-549 breast) was > 100 µM. For the same compound, the GI50 (MDA-MB-231 breast) was 1.03 µM and the TGI (MDA-MB-231 breast) was > 100 µM.

With `N#Cc1c(N)nc(NCc2ccccc2)c(C#N)c1-c1ccc(Cl)cc1Cl` the GI50 (UACC-62 melanoma) was > 100 µM, the TGI (UACC-62 melanoma) was > 100 µM and the GI50 (CCRF-CEM leukemia) was 10.2 µM. The TGI (CCRF-CEM leukemia) was 28.6 µM, the GI50 (OVCAR-4 ovarian) was 24.7 µM and the TGI (OVCAR-4 ovarian) was 99.3 µM. For the same compound, the TGI (SF-268 CNS) was 1.18 µM, the GI50 (SNB-19 CNS) was > 100 µM and the TGI (SNB-19 CNS) was > 100 µM. The GI50 (HOP-62 NSCLC) was > 51.9 µM, the TGI (HOP-62 NSCLC) was > 85.9 µM and the GI50 (T-47D breast) was 72.3 µM. For the same compound, the TGI (T-47D breast) was > 100 µM, the GI50 (HOP-92 NSCLC) was 1.12 µM and the TGI (HOP-92 NSCLC) was > 100 µM. The GI50 (MDA-MB-231 breast) was > 100 µM and the TGI (MDA-MB-231 breast) was > 100 µM.

`Cc1ccc(C)c(NC(=O)CC2SC(=Nc3ccccc3Cl)NC2=O)c1` (configuration not stated) was tested, and the TGI (UACC-62 melanoma) was > 100 µM, the TGI (CCRF-CEM leukemia) was > 100 µM and the TGI (OVCAR-4 ovarian) was > 100 µM. The TGI (SF-268 CNS) was > 100 µM, the TGI (SNB-19 CNS) was > 100 µM and the TGI (HOP-62 NSCLC) was > 100 µM. For the same compound, the TGI (HOP-92 NSCLC) was > 100 µM.

`CC1=C[C@H]2C[C@H](C)[C@H]3CC[C@H](C)[C@]4(C1)C(=O)C(O)=C(C)C(=O)[C@@]324` gave a GI50 (UACC-62 melanoma) of 22 µM, a TGI (UACC-62 melanoma) of 80.2 µM and a GI50 (CCRF-CEM leukemia) of 11.7 µM. For the same compound, the TGI (CCRF-CEM leukemia) was 31.5 µM, the GI50 (OVCAR-4 ovarian) was 29.8 µM and the TGI (OVCAR-4 ovarian) was > 100 µM. The GI50 (SF-268 CNS) was > 100 µM, the TGI (SF-268 CNS) was > 100 µM and the GI50 (SNB-19 CNS) was 30.2 µM. The TGI (SNB-19 CNS) was > 100 µM, the GI50 (HOP-62 NSCLC) was 28.7 µM and the TGI (HOP-62 NSCLC) was 83.6 µM. For the same compound, the GI50 (T-47D breast) was 19.1 µM, the TGI (T-47D breast) was > 100 µM and the GI50 (BT-549 breast) was 46 µM. The TGI (BT-549 breast) was > 100 µM, the GI50 (MDA-MB-231 breast) was 20.8 µM and the TGI (MDA-MB-231 breast) was 65.7 µM.

`O=c1[nH]c(=O)n(C2OC(CO)C(O)C2O)cc1OCC(F)(F)F` (configuration not stated) was tested, and the TGI (UACC-62 melanoma) was > 100 µM, the TGI (CCRF-CEM leukemia) was > 100 µM and the TGI (OVCAR-4 ovarian) was > 100 µM. For the same compound, the TGI (SF-268 CNS) was > 100 µM, the TGI (SNB-19 CNS) was > 100 µM and the TGI (HOP-62 NSCLC) was > 100 µM. For the same compound, the TGI (HOP-92 NSCLC) was > 100 µM.

`CC(=O)N(O)Cc1ccccc1` was tested, and the TGI (UACC-62 melanoma) was > 100 µM, the TGI (CCRF-CEM leukemia) was > 100 µM and the TGI (OVCAR-4 ovarian) was > 100 µM. For the same compound, the TGI (SF-268 CNS) was > 100 µM, the TGI (SNB-19 CNS) was > 100 µM and the TGI (HOP-62 NSCLC) was > 100 µM. For the same compound, the TGI (HOP-92 NSCLC) was > 100 µM.

`c1ccc(P(=C2c3ccccc3-c3ccccc32)(c2ccccc2)c2ccccc2)cc1` was tested, and the TGI (UACC-62 melanoma) was 14.1 µM, the TGI (CCRF-CEM leukemia) was 8.34 µM and the TGI (OVCAR-4 ovarian) was > 100 µM. For the same compound, the TGI (SF-268 CNS) was 69 µM, the TGI (SNB-19 CNS) was > 100 µM and the TGI (HOP-62 NSCLC) was 8.17 µM. It also gave a TGI (HOP-92 NSCLC) of 7.4 µM.

In the case of `Clc1ccccc1C(Nc1ncccn1)Nc1ncccn1`, the TGI (UACC-62 melanoma) is reported as > 100 µM, the TGI (OVCAR-4 ovarian) is reported as > 100 µM and the TGI (SF-268 CNS) is reported as > 100 µM. The TGI (SNB-19 CNS) was > 100 µM, the TGI (HOP-62 NSCLC) was > 100 µM and the TGI (T-47D breast) was > 100 µM. For the same compound, the TGI (BT-549 breast) was > 100 µM, the TGI (HOP-92 NSCLC) was > 100 µM and the TGI (MDA-MB-231 breast) was > 100 µM.

In the case of `CCOc1ccc(O)cc1[P+](c1ccccc1)(c1ccccc1)c1ccccc1`, the TGI (UACC-62 melanoma) is reported as 17.8 µM, the TGI (CCRF-CEM leukemia) is reported as 11.2 µM and the TGI (OVCAR-4 ovarian) is reported as 19.4 µM. The TGI (SF-268 CNS) was > 100 µM, the TGI (SNB-19 CNS) was 24.5 µM and the TGI (HOP-62 NSCLC) was 28.9 µM.

Reference: PubChem BioAssay (NCI)
